Values of other authors, collected in paper PMC11956011, “An Amazing 30-Year Journey around the DABO Family: A Medicinal Chemistry Lesson on a Versatile Class of Non-nucleoside HIV-1 Reverse Transcriptase Inhibitors” (Journal of Medicinal Chemistry, 2025).
Where two headings read alike, the source gives them in different places.

Key:
HIV-1IIIB = conditions: Fig 4
N119 (Y181C mutant) = conditions: for ED50: HIV-1 119: Fig 4; for Fold-resistance HIV-1 119 (ED50): Fig 4, in parentheses
mock-infected cells = conditions: for CD50: Fig 4
[1] = system: HIV-1 RT (WT, recombinant)
HIV-1 = conditions: Fig 5
HIV-1 NL4-3 wt = conditions: read-out: EC50: NL4-3 wt
[2] = system: K103N HIV-1 mutant strain
[3] = system: Y181C HIV-1 mutant strain; conditions: Fig 5
[4] = system: Y188L HIV-1 mutant strain
L100I HIV-1 RT = conditions: Fig 5
[5] = system: IRLL98 clinical isolate (K101Q, Y181C, G190A); conditions: Fig 9
Y181I HIV-1 RT = conditions: Fig 9

Structure (SMILES) | CC50 (mock-infected cells; Fig 5) [nM] | EC50 (HIV-1 NL4-3 wt; Fig 5) [nM] | EC50 ([2]; Fig 5) [nM] | EC50 [3] [nM] | EC50 ([4]; Fig 5) [nM] | ID50: WT ([1]; Fig 5) [nM] | ID50: L100I (L100I HIV-1 RT) [nM] | EC50 (HIV-1 NL4-3 wt; Fig 9) [nM] | EC50 ([2]; Fig 9) [nM] | EC50 ([4]; Fig 9) [nM] | EC50 [5] [nM] | ID50: WT ([1]; Fig 9) [nM] | ID50: Y181I (Y181I HIV-1 RT) [nM] | CC50 (mock-infected cells; Fig 9) [nM] | also measured
CCc1c(Cc2cc(C)cc(C)c2)n2c(nc1=O)SCCOC2 [compound 25] | – | – | – | – | – | – | – | – | – | – | – | – | – | – | ED50: HIV-1 IIIB (HIV-1IIIB): 600 nM; ED50: HIV-1 119 (N119 (Y181C mutant)): 19000 nM; Fold-resistance HIV-1 119 (ED50) (N119 (Y181C mutant)): 32; CD50 (mock-infected cells): > 100 µM
CCc1c(Cc2cc(C)cc(C)c2)nc2n(c1=O)COCCS2 [compound 26] | – | – | – | – | – | – | – | – | – | – | – | – | – | – | ED50: HIV-1 IIIB (HIV-1IIIB): 1600 nM; ED50: HIV-1 119 (N119 (Y181C mutant)): 6300 nM; Fold-resistance HIV-1 119 (ED50) (N119 (Y181C mutant)): 4; CD50 (mock-infected cells): > 100 µM
CCC(C)Sc1nc(O)cc(Cc2c(F)cccc2F)n1 (centres unmarked) [compound 31] | > 200000 | – | – | – | – | – | – | – | – | – | – | – | – | – | IC50 ([1]; Fig 5, read-out: IC50 (HIV-1 RT)): 50 nM; SI (HIV-1): > 5000
CCCCSc1nc(C(C)c2c(F)cccc2Cl)cc(=O)[nH]1 (centres unmarked) [compound 39] | > 73000 | 0.3 | 1100 | 3900 | 5600 | 10 | 600 | – | – | – | – | – | – | – | –
CC(c1cc(=O)[nH]c(SC2CCCC2)n1)c1c(F)cccc1Cl (centres unmarked) [compound 40] | > 71000 | 0.3 | 900 | 3000 | > 71000 | 15 | 1100 | – | – | – | – | – | – | – | –
Cc1c(C(C)c2c(F)cccc2Cl)nc(SC(C)C)[nH]c1=O (centres unmarked) [compound 41] | > 15000 | – | 140 | 250 | 3400 | – | – | – | – | – | – | – | – | – | –
CCCSc1nc(C(C)c2c(F)cccc2Cl)c(C)c(=O)[nH]1 (centres unmarked) [compound 42] | > 1500 | 0.05 | 350 | 260 | > 1500 | 0.9 | 90 | – | – | – | – | – | – | – | –
Cc1c(C(C)c2c(F)cccc2Cl)nc(SC2CCCC2)[nH]c1=O (centres unmarked) [compound 43] | > 15000 | 0.03 | 93 | 230 | 2900 | 11 | 120 | – | – | – | – | – | – | – | –
COc1ccc(CSc2nc(Cc3c(Cl)cccc3Cl)c(C)c(=O)[nH]2)cc1 [compound 76] | – | – | – | – | – | – | – | 7 | 4700 | > 32000 | 47 | 4 | 150000 | 32000 | –
COc1ccc(CCSc2nc(Cc3c(Cl)cccc3Cl)c(C)c(=O)[nH]2)cc1 [compound 77] | – | – | – | – | – | – | – | < 0.14 | 870 | 6900 | 0.22 | 26 | 1500 | > 57000 | –
COc1ccc(CCCSc2nc(O)c(C)c(Cc3c(Cl)cccc3Cl)n2)cc1 [compound 78] | – | – | – | – | – | – | – | 0.44 | > 1000 | > 1000 | 110 | 37 | 300 | 1000 | –
COc1ccc(CSc2nc(O)c(C)c(Cc3c(F)cccc3F)n2)cc1 [compound 79] | – | – | – | – | – | – | – | 26 | 690 | 10000 | 690 | 7 | – | > 64000 | –
Cc1c(O)nc(Sc2ccccc2)nc1Cc1c(F)cccc1F [compound 80] | – | – | – | – | – | – | – | 90 | 42500 | > 72700 | 16700 | 32000 | > 400000 | > 72700 | –
